In brackets after ≈: the same amount, converted by molar mass.
How the values were obtained:
[1] = tested on: Staphylococcus epidermidis ATCC 12228; assay: In vitro antibacterial activity (MIC), microbroth dilution; format: cell-based; conditions: ATCC12228, 37° C., 18 h
[2] = tested on: Enterococcus faecalis ATCC 51575; assay: as above; format: cell-based; conditions: ATCC51575, 37° C., 18 h
[3] = tested on: Staphylococcus aureus ATCC 29213; conditions: prior art value; cited from earlier work
[4] = tested on: Staphylococcus aureus MRSA 15-1; assay: In vitro antibacterial activity (MIC), microbroth dilution; format: cell-based; conditions: 37° C., 18 h
[5] = tested on: Staphylococcus aureus ATCC 25923; assay: as above; format: cell-based; conditions: ATCC25923, 37° C., 18 h
[6] = tested on: Escherichia coli ATCC 35218; assay: as above; format: cell-based; conditions: ATCC35218, 37° C., 18 h, read-out: MIC Escherichia coli ATCC 35218
[7] = tested on: Staphylococcus aureus ATCC 29213; assay: In vitro induced drug resistance, 20 generations at sub-MIC; format: cell-based; conditions: ATCC29213, read-out: MIC value after passage for 20 generations
Method: Test method: MIC values of a compound 1 and a control compound DS2969 against Staphylococcus aureus ATCC 29213 were determined by using a microbroth dilution method recommended by operating procedures for antibacterial susceptibility testing of the Clinical and Laboratory Standards Institute (CLSI).
After testing the MIC values, sub-MIC concentrations (1/2 MIC) of bacteria were diluted, and the concentration of the obtained bacterial solution was adjusted to 105 CFU/mL for a next round of MIC value testing. After 24 hours of incubation, bacterial suspensions were prepared by using bacterial suspensions at sub-MIC concentrations of drugs (1/2 MIC), and another MIC testing was performed. This process was repeated for 20 times, and the MIC value for each test was recorded.
The MIC values of the compound 1 and DS2969 inducing Staphylococcus aureus ATCC29213 for 20 generations were recorded, with the number of generations of bacteria induced as an abscissa and the MIC values as an ordinate (as shown in FIG. 1).

[8] = tested on: Staphylococcus aureus ATCC 43300 (MRSA); assay: In vitro antibacterial activity (MIC), microbroth dilution; format: cell-based; conditions: 37° C., 18 h, read-out: MIC Staphylococcus aureus ATCC 43300 (MRSA)
[9] = tested on: Escherichia coli ECO+ 15-1; assay: as above; format: cell-based; conditions: 37° C., 18 h, read-out: MIC Escherichia coli ECO+ 15-1
[10] = tested on: Acinetobacter baumannii ATCC 19606; assay: as above; format: cell-based; conditions: ATCC19606, 37° C., 18 h, read-out: MIC Acinetobacter baumannii ATCC 19606
[11] = tested on: Escherichia coli ATCC25922; conditions: prior art value; cited from earlier work
[12] = tested on: Escherichia coli ATCC 25922; assay: In vitro antibacterial activity (MIC), microbroth dilution; format: cell-based; conditions: ATCC25922, 37° C., 18 h, read-out: MIC Escherichia coli ATCC 25922
[13] = tested on: Mycobacterium tuberculosis; assay: Activity against Mycobacterium tuberculosis (MIC); format: cell-based; conditions: read-out: Inhibitory activity (MIC) against Mycobacterium tuberculosis
[14] = tested on: Pseudomonas aeruginosa ATCC 27853; assay: In vitro antibacterial activity (MIC), microbroth dilution; format: cell-based; conditions: ATCC27853, 37° C., 18 h, read-out: MIC Pseudomonas aeruginosa ATCC 27853
[15] = tested on: Staphylococcus epidermidis MRSE 15-1; assay: as above; format: cell-based; conditions: 37° C., 18 h
[16] = tested on: Staphylococcus aureus ATCC 29213; assay: as above; format: cell-based; conditions: ATCC29213, 37° C., 18 h
[17] = tested on: Staphylococcus aureus (MRSA, ATCC 43300); assay: Antibacterial activity in mice, sepsis model; format: in vivo, ICR mice; conditions: Staphylococcus aureus, po; MRSA ATCC 43300 sepsis model, intragastric administration at lower dose
Method: Experimental animals: Beijing Vital River Laboratory Animal Technology Co., Ltd., ICR mice, with a uniform body weight of 20-22 g, and half male and half female.
Model: Sepsis model infected by Staphylococcus aureus (MRSA, ATCC 43300)
Modeling method: mice were infected with […] (diluted with a 5% sterile yeast solution) Staphylococcus aureus (MRSA, ATCC 43300) such that sepsis models of mice were formed (0.5 mL of a bacterial solution was injected intraperitoneally into each mouse).
Experimental scheme: a compound 1 and a positive drug were first dissolved in DMSO, and then diluted with other solvents, wherein a solvent ratio was saline:Tween 80:DMSO=9:0.5:0.5.

[18] = tested on: Klebsiella pneumoniae KPN-15-1; assay: In vitro antibacterial activity (MIC), microbroth dilution; format: cell-based; conditions: KPN151, 37° C., 18 h, read-out: MIC Klebsiella pneumoniae KPN-15-1
[19] = tested on: Clostridium difficile ATCC 9689; assay: as above; format: cell-based; conditions: Clostridioides difficile, ATCC9689; read-out: MIC Clostridium difficile ATCC 9689
[20] = tested on: Enterococcus faecium EFM 19-1; assay: as above; format: cell-based; conditions: EFM191, 37° C., 18 h

In the case of `CCc1[nH]c(C(=O)N[C@@H]2CCN(c3nnc(C(C)(C)O)s3)C[C@@H]2OC)nc1Cl` [DS2969, reference compound], the MIC [1] is given as 0.5 mg/L (≈ 1.17 µM), the MIC [2] is given as 0.5 mg/L (≈ 1.17 µM) and the “MIC Staphylococcus aureus ATCC 29213 (background)” value [3] is given as 0.2 mg/L (≈ 0.466 µM). For the same compound, the MIC [4] was 0.5 mg/L (≈ 1.17 µM), the MIC [5] was 0.5 mg/L (≈ 1.17 µM) and the MIC [6] was 32 mg/L (≈ 74.6 µM). It also gave an MIC [7] of 16 mg/L (≈ 37.3 µM), an MIC [8] of 0.5 mg/L (≈ 1.17 µM) and an MIC [9] of over 64 mg/L. The MIC [10] was over 64 mg/L, the “MIC Escherichia coli ATCC25922 (background)” value [11] was 32 mg/L (≈ 74.6 µM) and the MIC [12] was 32 mg/L (≈ 74.6 µM). The MIC [13] was 0.654 mg/L (≈ 1.52 µM), the MIC [14] was over 64 mg/L and the MIC [15] was 0.5 mg/L (≈ 1.17 µM). The MIC [16] was 0.5 mg/L (≈ 1.17 µM), the ED50 [17] was over 10 mg/kg and the MIC [18] was over 64 mg/L. It also gave an MIC [19] of 0.5 mg/L (≈ 1.17 µM) and an MIC [20] of 0.5 mg/L (≈ 1.17 µM).
